Test results published in PubChem BioAssay (NCI).
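All cell lines were grown in 96-well plates and treated with compound for 48 hours. GI50 is the concentration that inhibits growth by half. TGI: total growth inhibition.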

Experiments:
Assay in all cases: NCI anticancer screen, dose series, 48 h
[1] = test system: M14 melanoma
[2] = test system: TK-10 renal
[3] = test system: HCC-2998 colon
[4] = test system: ACHN renal
[5] = test system: CCRF-CEM leukemia
[6] = test system: SK-MEL-5 melanoma
[7] = test system: SF-539 CNS
[8] = test system: SK-OV-3 ovarian
[9] = test system: BT-549 breast
[10] = test system: NCI-H226 lung

COC1C[C@H](O[C@@H]2C[C@H](O[C@@H]3C[C@H](O[C@@H]4C(=O)c5c(cc6cc(O[C@H]7C[C@@H](O[C@H]8C[C@@H](O)[C@H](O)C(C)O8)[C@H](O)C(C)O7)c(C)c(O)c6c5O)C[C@H]4C(OC)C(=O)[C@@H](O)[C@@H](C)O)OC(C)[C@H]3O)OC(C)[C@@H]2O)OC(C)[C@@H]1O (stereo not given in full)
GI50 [1]: 0.191 µM
TGI [1]: 2.15 µM
GI50 [2]: 0.173 µM
TGI [2]: 6.4 µM
GI50 [3]: 0.0961 µM
TGI [3]: 0.615 µM
GI50 [4]: 0.252 µM
TGI [4]: 31.1 µM
GI50 [5]: 0.127 µM
TGI [5]: > 32.5 µM
GI50 [6]: 0.0641 µM
TGI [6]: 0.175 µM
GI50 [7]: 0.0736 µM
TGI [7]: 0.316 µM
GI50 [8]: 0.105 µM
TGI [8]: > 32.5 µM
GI50 [9]: 0.0785 µM
TGI [9]: 0.565 µM

Cc1cc(NCCCCCCCCNc2cc(C)nc3cc(N(C)C)ccc23)c2ccc(N(C)C)cc2n1
TGI [1]: 21.4 µM
TGI [4]: 32.7 µM
TGI [5]: 49.1 µM

COc1ccc(NC(=O)CC2SC(=Nc3ccc(Cl)cc3C)NC2=O)c([N+](=O)[O-])c1 (stereo not given)
TGI [1]: > 100 µM
TGI [2]: > 100 µM
TGI [3]: > 100 µM
TGI [4]: > 100 µM
TGI [5]: > 100 µM
TGI [10]: > 100 µM
TGI [6]: > 100 µM
TGI [7]: > 100 µM

Clc1ccc(Nc2nnc(COc3ccccc3)c3ccccc23)cc1
GI50 [1]: 0.918 µM
TGI [1]: 5.03 µM
GI50 [3]: 3.81 µM
TGI [3]: 8.36 µM
GI50 [4]: 2.35 µM
TGI [4]: 25 µM
GI50 [5]: 2.8 µM
TGI [5]: 14.2 µM
GI50 [10]: 1.56 µM
TGI [10]: 6.58 µM
GI50 [6]: 1.08 µM
TGI [6]: 4.56 µM
GI50 [7]: 3.12 µM
TGI [7]: 7.58 µM
GI50 [8]: 2.38 µM
TGI [8]: 9.96 µM
GI50 [9]: 2.05 µM
TGI [9]: 6.65 µM

C=C1[C@H](O)C[C@@H](C(C)C(O)CC=C(C)C)[C@@H](O)[C@@H]2C(C)=CC[C@@H]12 (stereo not given in full)
GI50 [1]: > 100 µM
TGI [1]: > 100 µM
GI50 [2]: > 100 µM
TGI [2]: > 100 µM
GI50 [4]: > 100 µM
TGI [4]: > 100 µM
GI50 [5]: 55.6 µM
TGI [5]: > 100 µM
GI50 [10]: > 100 µM
TGI [10]: > 100 µM
GI50 [6]: > 100 µM
TGI [6]: > 100 µM
GI50 [7]: > 100 µM
TGI [7]: > 100 µM
GI50 [8]: > 100 µM
TGI [8]: > 100 µM
GI50 [9]: > 100 µM
TGI [9]: > 100 µM

Oc1ccccc1-c1cnnc(-c2ccccc2O)c1
TGI [1]: 43.3 µM
TGI [2]: > 100 µM
TGI [4]: 83.5 µM
TGI [5]: 36.5 µM
TGI [10]: 73.9 µM
TGI [7]: 65.1 µM
TGI [8]: 72.8 µM

O=C(Nc1ccn(C2CCC(COC(c3ccccc3)(c3ccccc3)c3ccccc3)O2)c(=O)n1)c1ccccc1 (stereo not given)
TGI [1]: 11.8 µM
TGI [3]: 29.2 µM
TGI [4]: 9.74 µM
TGI [5]: 9.04 µM
TGI [10]: 18 µM
TGI [6]: 6.41 µM
TGI [7]: 7 µM
TGI [8]: 26.3 µM

O=C(NNC(=O)/C(=C/c1cccc([N+](=O)[O-])c1)NC(=O)c1ccccc1)Nc1ccc(Cl)cc1
TGI [1]: 26.9 µM
TGI [2]: 31.7 µM
TGI [3]: 25.8 µM
TGI [4]: 31.8 µM
TGI [5]: 31.2 µM
TGI [10]: 32.2 µM
TGI [6]: 25.7 µM
TGI [7]: 35.1 µM
TGI [8]: 32.1 µM

[N-]=[N+]=NCCCn1c2c(c3ccccc3c1=O)C(=O)c1cc3c(cc1-2)OCO3
GI50 [1]: 79.7 µM
TGI [1]: > 100 µM
GI50 [2]: 45.3 µM
TGI [2]: > 100 µM
GI50 [4]: 24.1 µM
TGI [4]: > 100 µM
GI50 [5]: 8.3 µM
TGI [5]: > 100 µM
GI50 [10]: > 100 µM
TGI [10]: > 100 µM
GI50 [6]: 45.6 µM
TGI [6]: > 100 µM
GI50 [7]: 20.9 µM
TGI [7]: > 100 µM
GI50 [9]: > 100 µM
TGI [9]: > 100 µM
